This passage reports IC50 and EC50 results from patent publication EP4563146A1 (IRBM S.P.A., priority 2023, dated 2025).

Read-outs that look alike come from different tables or passages of the source.

Usually IC50 stands for the midpoint of a concentration-inhibition curve. Lower therefore signals inhibition by little substance.

Experiment [1] has as its target T1, West Nile Virus (WNV) NS2B-NS3 protease (West Nile virus, UniProt Q9Q6P4).
T1 construct: NS2B1423-1470); purchased R&D 2907-SE-020
Nature of the experiment: WNV protease inhibition assay. In kind it is biochemical. The note with it: Table 4; letter codes for IC50. From the text:
WNV protease inhibition assay

Experiment [2] has as its system ZIKV replicon. The experiment in a line: ZIKV replication inhibition assay (NanoLuc replicon in Vero cells). Particulars: 72 h. Background: A replicon is a self-replicating genome or part of one, used to study replication in cells.
Setting [3] is: read-out: ZIKA Cell_Nanoluc, Vero cells with stable ZIKV replicon, Nano-Glo readout.
Setting [4] is: Zika virus, Vero, read-out: ZIKA Cell_Nanoluc, Vero cells with stable ZIKV replicon, 72 h, Nano-Glo readout.
[5] abbreviates: Zika virus, Vero, read-out: ZIKA Cell_Nanoluc.

T1 sequence (Q9Q6P4 1423-1470): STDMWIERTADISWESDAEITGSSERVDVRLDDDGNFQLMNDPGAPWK
T1 sequence (Q9Q6P4 1506-1689): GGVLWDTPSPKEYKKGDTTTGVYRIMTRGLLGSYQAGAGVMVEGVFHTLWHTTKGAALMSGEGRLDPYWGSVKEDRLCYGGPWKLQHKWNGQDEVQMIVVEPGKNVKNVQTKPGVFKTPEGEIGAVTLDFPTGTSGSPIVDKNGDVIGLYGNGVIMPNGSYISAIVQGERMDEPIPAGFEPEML

In the case of `Cc1ccccc1CC(=O)Nc1cc(NC(=O)[N-]c2c[n+]([C@@H]3CCC[C@@H](C(N)=O)C3)no2)cc(C(F)(F)F)c1` [Example 267, (3-((1R,3R)-3-Carbamoylcyclohexyl)-1,2,3-oxadiazol-3-ium-5-yl)((3-(2-(o-tolyl)acetamido)-5-(trifluoromethyl)phenyl)carbamoyl)amide], the IC50 in experiment [1] lay in the range of 0.1 to 1 µM. Also, the EC50 in experiment [2] (setting [3]) is 1 to 20 µM.
For the compound `O=C([N-]c1c[n+](Cc2ccc(-c3cncnc3)cc2)no1)Nc1ccnc(C(F)(F)F)c1` [Example 236, (3-(4-(Pyrimidin-5-yl)benzyl)-1,2,3-oxadiazol-3-ium-5-yl)((2-(trifluoromethyl)pyridin-4-yl)-carbamoyl)amide], in experiment [1], the IC50 lay within 0.1 to 1 µM. Besides, in experiment [2] (setting [4]), the EC50 is 0.1 to 1 µM.
In experiment [1], `CN(C)C[C@H]1CC[C@H]([n+]2cc([N-]C(=O)Nc3cc(NC(=O)[C@@H](F)c4ccccc4F)cc(C(F)(F)F)c3)on2)CC1` (single isomer, unassigned) [Example 243] registered an IC50 of under 0.1 µM. The EC50 in experiment [2] (setting [5]) was 0.1 to 1 µM.
Compound `COC(=O)[C@H]1CCC[C@@H]([n+]2cc([N-]C(=O)Nc3cc(NC(=O)Cc4ccccc4C)cc(C(F)(F)F)c3)on2)C1` [Example 223, (3-((1R,3S)-3-(Methoxycarbonyl)cyclohexyl)-1,2,3-oxadiazol-3-ium-5-yl)((3-(2-(o-tolyl)acetamido)-5-(trifluoromethyl)phenyl)-carbamoyl)amide] yielded an IC50 in experiment [1] of under 0.1 µM. Also, the EC50 in experiment [2] (setting [4]) is under 0.1 µM.
In experiment [1], `CNC(=O)[C@@H]1CCC[C@@H]([n+]2cc([N-]C(=O)Nc3cc(NC(=O)Cc4ccccc4C)cc(C(F)(F)F)c3)on2)C1` (racemic) [Example 252, rac-(3-((1R,3R)-3-(Methylcarbamoyl)-cyclohexyl)-1,2,3-oxadiazol-3-ium-5-yl)((3-(2-(o-tolyl)-acetamido)-5-(trifluoromethyl)phenyl)-carbamoyl)amide] yielded an IC50 of 0.1 to 1 µM. The EC50 in experiment [2] (setting [4]) was in the range of 1 to 20 µM.
In experiment [1], `O=C([N-]c1c[n+](C[C@H]2CC[C@H](c3cncnc3)CC2)no1)Nc1cccc(C(F)(F)F)c1` [Example 186, (3-(((1R,4R)-4-(Pyrimidin-5-yl)cyclohexyl)methyl)-1,2,3-oxadiazol-3-ium-5-yl)((3-(trifluoromethyl)phenyl)carbamoyl)amide] came in with an IC50 of 0.1 to 1 µM. For the same compound, the EC50 in experiment [2] (setting [5]) is 1 to 20 µM.
On to `CN(C)C[C@H]1CC[C@H]([n+]2cc([N-]C(=O)Nc3cc(NC(=O)CS(=O)(=O)c4ccccc4)cc(C(F)(F)F)c3)on2)CC1` [Example 151, (3-((1R,4R)-4-((Dimethylamino)methyl)-cyclohexyl)-1,2,3-oxadiazol-3-ium-5-yl)((3-(2-(phenylsulfonyl)acetamido)-5-(trifluoromethyl)phenyl)carbamoyl)amide], for which the concentration for half-maximal inhibition (IC50) in experiment [1] was in the range of 0.1 to 1 µM. For the same compound, the EC50 in experiment [2] (setting [3]) fell in the range of 1 to 20 µM.
In experiment [1], `Cc1nc(-c2ccc(C[n+]3cc([N-]C(=O)Nc4ccnc(C(F)(F)F)c4)on3)cc2)c(C)s1` [Example 259, (3-(4-(2,5-Dimethylthiazol-4-yl)benzyl)-1,2,3-oxadiazol-3-ium-5-yl)((2-(trifluoromethyl)pyridin-4-yl)carbamoyl)amide] yielded an IC50 of 0.1 to 1 µM. Also, the EC50 in experiment [2] (setting [4]) was under 0.1 µM.
Regarding `CN1CCCCC1C[n+]1cc([N-]C(=O)Nc2cc(NC(=O)Cc3ccccc3)cc(C3CC3)c2)on1` (stereo not drawn) [Example 127], the EC50 in experiment [2] (setting [5]) is 1 to 20 µM.
Regarding `NC1CC(C[n+]2cc([N-]C(=O)Nc3cc(NC(=O)Cc4ccccc4)cc(C(F)(F)F)c3)on2)C1` (stereo not drawn) [Example 118, (3-((3-Aminocyclobutyl)methyl)-1,2,3-oxadiazol-3-ium-5-yl)((3-(2-phenylacetamido)-5-(trifluoromethyl)phenyl)carbamoyl)amide], the EC50 in experiment [2] (setting [4]) was in the range of 1 to 20 µM.
`C[n+]1cc([N-]C(=O)Nc2cc(NC(=O)Cc3ccccc3)cc(C(F)(F)F)c2)on1` [Example 4, (3-Methyl-1,2,3-oxadiazol-3-ium-5-yl)((3-(2-phenylacetamido)-5-(trifluoromethyl)phenyl)carbamoyl)amide]: in experiment [2] (setting [4]), the EC50 was 1 to 20 µM.
For `O=C(Cc1ccc2nc[nH]c2c1)Nc1cc(NC(=O)[N-]c2c[n+](Cc3ccccn3)no2)cc(C(F)(F)F)c1` [Example 124, ((3-(2-(1H-Benzo[d]imidazol-6-yl)acetamido)-5-(trifluoromethyl)phenyl)carbamoyl)(3-(pyridin-2-ylmethyl)-1,2,3-oxadiazol-3-ium-5-yl)amide], the EC50 in experiment [2] (setting [4]) is over 20 µM.
For the compound `O=C([N-]c1c[n+](Cc2ccccn2)no1)Nc1cc(NC(=O)C2CC(Cc3ccccc3)C2)cc(C(F)(F)F)c1` (stereo not drawn) [Example 68], the EC50 in experiment [2] (setting [5]) lay within 1 to 20 µM.
On to `COc1ncc(-c2ccc(C[n+]3cc([N-]C(=O)Nc4cc(NC(=O)CCc5ccccc5)cc(C(F)(F)F)c4)on3)cc2)c(C)n1` [Example 9, (3-(4-(2-Methoxy-4-methylpyrimidin-5-yl)benzyl)-1,2,3-oxadiazol-3-ium-5-yl)((3-(3-phenylpropanamido)-5-(trifluoromethyl)phenyl)carbamoyl)amide], for which the EC50 in experiment [2] (setting [4]) lay within 0.1 to 1 µM.
`O=C([N-]c1c[n+](Cc2ccccn2)no1)Nc1cc(NC(=O)C23CCC(O)(CC2)C3)cc(C(F)(F)F)c1` [Example 66]: in experiment [2] (setting [5]), the EC50 was over 20 µM.
With `COc1ncc(-c2ccc(C[n+]3cc([N-]C(=O)Nc4cc(NC(C)=O)cc(C(F)(F)F)c4)on3)cc2)c(C)n1` [Example 11], the EC50 in experiment [2] (setting [5]) was 1 to 20 µM.
Take `Cc1oc(-c2ccccc2)nc1CC(=O)Nc1cc(NC(=O)[N-]c2c[n+](Cc3ccccn3)no2)cc(C(F)(F)F)c1` [Example 33]: the EC50 in experiment [2] (setting [5]) was 1 to 20 µM.
For the compound `O=C([N-]c1c[n+](Cc2ccccn2)no1)Nc1cc(NC(=O)c2ccn3c2COCC3)cc(C(F)(F)F)c1` [Example 81, ((3-(3,4-Dihydro-1H-pyrrolo[2,1-c][1,4]oxazine-8-carboxamido)-5-(trifluoromethyl)-phenyl)carbamoyl)(3-(pyridin-2-ylmethyl)-1,2,3-oxadiazol-3-ium-5-yl)amide], the EC50 in experiment [2] (setting [4]) was in the range of 1 to 20 µM.
In the case of `CN1CCCCC1C[n+]1cc([N-]C(=O)Nc2cc(NC(=O)Cc3ccccc3)cc(C(F)(F)F)c2)on1` (stereo not drawn) [Example 105, (3-((1-Methylpiperidin-2-yl)methyl)-1,2,3-oxadiazol-3-ium-5-yl)((3-(2-phenylacetamido)-5-(trifluoromethyl)phenyl)carbamoyl)amide], the EC50 in experiment [2] (setting [4]) was 0.1 to 1 µM.
As to `CN1CCC(C[n+]2cc([N-]C(=O)Nc3cc(NC(=O)Cc4ccccc4)cc(C(F)(F)F)c3)on2)CC1` [Example 106, (3-((1-Methylpiperidin-4-yl)methyl)-1,2,3-oxadiazol-3-ium-5-yl)((3-(2-phenylacetamido)-5-(trifluoromethyl)phenyl)carbamoyl)amide], the EC50 in experiment [2] (setting [4]) was in the range of 1 to 20 µM.
As for `O=C(Cc1ccccc1)Nc1cc(NC(=O)[N-]c2c[n+](CC3CC(NCc4ccc(O)cn4)C3)no2)cc(C(F)(F)F)c1` (stereo not drawn) [Example 134, (3-((3-(((5-Hydroxypyridin-2-yl)methyl)amino)-cyclobutyl)methyl)-1,2,3-oxadiazol-3-ium-5-yl)((3-(2-phenylacetamido)-5-(trifluoromethyl)-phenyl)carbamoyl)amide], the EC50 in experiment [2] (setting [4]) was over 20 µM.
Take `COC(=O)c1ccc(C[n+]2cc([N-]C(=O)Nc3cc(NC(=O)Cc4ccccc4)cc(C(F)(F)F)c3)on2)nc1` [Example 113, (3-((5-(Methoxycarbonyl)pyridin-2-yl)methyl)-1,2,3-oxadiazol-3-ium-5-yl)((3-(2-phenylacetamido)-5-(trifluoromethyl)phenyl)carbamoyl)amide]: the EC50 in experiment [2] (setting [4]) lay within 1 to 20 µM.
